# Reference: US20260018245A1, “SYSTEMS AND METHODS FOR IDENTIFYING AND TARGETING COLLATERAL LETHAL GENES” (The Regents of the University of Michigan, priority 2022, published 2026)
# Tests used:
# [1] = tested on: isogenic SKOV3 cells (shScramble, shUQCR11); assay: Nucleotide profiling after MTHFD2 inhibitor vs vehicle; format: cell-based
# Source text: FIG. 14 Analysis of global metabolomics and nucleotide pathways of ovarian cancer lines with and without UQCR11 deletion. (a) Pathway enrichment analysis using metabolic pathways in the KEGG database comparing UQCR11-intact and -null ovarian cancer lines from the CCLE panel (n=50). Pathway coverage represents fraction of metabolites in the KEGG pathway that have available data. Data analyzed using weighted z-test for pathway analysis built into MetaboAnalyst 5.0. (b) Pathway enrichment analysis on all metabolite concentrations measured in SKOV3 (UQCR11-intact) and OVCAR8, HeyA8 and CAOV3 (UQCR11-null) cells for metabolites involved in nucleotide metabolism. Pathway coverage, that is, percentage of metabolites measured from each pathway are represented by a gradient color-scale. […] Data analyzed using weighted z-test for pathway analysis built into MetaboAnalyst 5.0. […] Data are combined from two independent experiments and analyzed using two-sample t-tests corrected for multiple hypothesis testing, built into MetaboAnalyst 5.0. […] (d) Metabolites involved in pyrimidine synthesis and salvage are measured in SKOV3 (UQCR11-intact) and OVCAR8, HeyA8 and CAOV3 (UQCR11-null) cells and overlaid onto the pyrimidine metabolic pathway map. […] Data are combined from two independent experiments and analyzed using two-sample t-tests corrected for multiple hypothesis testing, built into MetaboAnalyst 5.0 (n=6). […]
# SKOV3 and OVCAR8 cells = assay: MTHFD2 inhibitor in cells with NNT, IDH2 or IDH3A knocked down; format: cell-based; conditions: IDH2 or IDH3A knockdown, UQCR11-intact or -null cells, 10 μM, 72 h
# Procedure: FIG. 15 Investigating metabolic consequence of Complex III impairment and activity of paralogous pathways other than oxidative MTHFD2. (a) Effect of MTHFD2 inhibitor ([…]) and uridine (50 μM) supplementation on viability of parental ovarian cancer lines that are UQCR11—intact (SKOV3) or UQCR11-null (HeyA8, OVCAR8, CAOV3). Data are representative of two independent experiments and presented as mean±s.d. (n=6). Data analyzed with one-way ANOVA with Tukey's correction for multiple comparisons. (b) Effect of MTHFD2 inhibitor and uridine supplementation on viability of isogenic SKOV3 lines expressing shScramble or shUQCR11. […] Data analyzed with one-way ANOVA with Tukey's correction for multiple comparisons. […] (n=6) and analyzed using two-tailed Student's t-test. (d) mRNA expression of NNT, IDH2, IDH3A measured via qRT-PCR after knocking down with shNNT, shIDH2, and shIDH3A, relative to scramble shRNA (shScr), verifying knockdown efficiency in SKOV3 and OVCAR8 cell-lines. […] Data analyzed using unpaired two-tailed Student's t-test. […] Data are analyzed using ordinary one-way ANOVA with multiple comparisons. […] Loss of viability calculated by comparing respective viability in vehicle control-treated cells to MTHFD2 inhibitor-treated cells. […] (n=6) and analyzed using ordinary one-way ANOVA with Dunnett's correction for multiple comparisons. Error bars are calculated using propagation of error principles.
smiles,measurement,setting,value
Cc1c(N2CCN(C)[C@@H](C)C2)ccc2c3c(c(=O)oc12)CN(C(=O)c1ccc(NS(C)(=O)=O)c(OC(F)(F)F)c1)CC3 [DS18561882],differentially abundant metabolites (nucleotides),[1],three out of 49
same,effect of MTHFD2 inhibition on viability,SKOV3 and OVCAR8 cells,not influenced
